These results are taken from US12172990B2 (Constellation Pharmaceuticals, Inc., priority 2018, dated 2024).

The target in one assay is full length human TREX1 (Homo sapiens (Human), UniProt Q9NSU2). Put plainly: TREX1 Biochemical Assay (fluorescence assay measuring degradation of dsDNA substrate). The conditions noted are these: 150 pM TREX1, 60 nM dsDNA substrate, 25 minutes at room temperature. The procedure, abridged: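 His-Tev-tagged full-length human TREX1 expressed in E. coli, 150 pM final, with 60 nM TEX615/quencher-labelled 9-mer dsDNA in Tris pH 7.4, NaCl, DTT, BSA, Tween-20, MgCl2 and 1.0% DMSO; 25 min at room temperature, EDTA-quenched. Fluorescence 615 nm (excitation 570 nm); 10-point IC50 by four-parameter fit against pre-quenched and no-inhibitor controls.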

Assay [1] has as its target human TREX2 (residues M44-A279) (Homo sapiens (Human), UniProt Q9BQ50). Put plainly: TREX2 Biochemical Assay (fluorescence assay measuring degradation of dsDNA substrate). Particulars: 2.5 nM TREX2, 60 nM dsDNA substrate, 25 minutes at room temperature. A digest of the protocol:
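Final conditions: 2.5 nM His-Tev-tagged TREX2 (E. coli-expressed), 60 nM fluorophore/quencher-labelled dsDNA, 50 mM Tris pH 7.4, 150 mM NaCl, 100 mM MgCl2, 1% DMSO; 10-point compound dose-response. Incubated 25 min at room temperature, then EDTA-quenched; fluorescence read at ex 570/em 615 nm. IC50 from four-parameter fit against pre-quenched and no-inhibitor controls.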

Chain of full length human TREX1 (Q9NSU2 whole entry): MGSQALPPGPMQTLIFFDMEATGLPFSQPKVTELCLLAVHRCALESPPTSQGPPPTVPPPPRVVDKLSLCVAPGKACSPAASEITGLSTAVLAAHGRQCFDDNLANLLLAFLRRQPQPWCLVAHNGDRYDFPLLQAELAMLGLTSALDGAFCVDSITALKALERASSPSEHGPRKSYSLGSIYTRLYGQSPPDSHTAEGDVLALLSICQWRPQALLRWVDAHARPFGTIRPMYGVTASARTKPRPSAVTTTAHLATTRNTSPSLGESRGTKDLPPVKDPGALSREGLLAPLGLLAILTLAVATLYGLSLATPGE
Chain of human TREX2 (residues M44-A279) (Q9BQ50 whole entry, the tested form may be a part): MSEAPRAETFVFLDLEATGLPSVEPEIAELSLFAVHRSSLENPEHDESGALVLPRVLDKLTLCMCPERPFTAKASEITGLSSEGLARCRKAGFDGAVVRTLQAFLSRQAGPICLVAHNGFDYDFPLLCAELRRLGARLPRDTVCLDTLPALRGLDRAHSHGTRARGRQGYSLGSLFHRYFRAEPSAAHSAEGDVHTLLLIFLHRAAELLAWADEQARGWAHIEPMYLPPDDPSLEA

Regarding `CN1CCN(c2nc(C(=O)Nc3cnoc3)c(O)c(=O)n2C)CC1` [Example 49, 5-hydroxy-N-(isoxazol-4-yl)-1-methyl-2-(4-methylpiperazin-1-yl)-6-oxo-1,6-dihydropyrimidine-4-carboxamide], the IC50 at full length human TREX1 lay in the range of 100 to 1000 nM; in assay [1] it was 10 to 100 µM.

For the molecule `C[C@H]1CC[C@H](c2nc(C(=O)Nc3cnoc3)c(O)c(=O)n2C)CN1C(=O)c1ccc(Cl)c(Cl)c1` [Example 84, 2-((3S,6S)-1-(3,4-dichlorobenzoyl)-6-methylpiperidin-3-yl)-5-hydroxy-N-(isoxazol-4-yl)-1-methyl-6-oxo-1,6-dihydropyrimidine-4-carboxamide], the IC50 at full length human TREX1 was below 100 nM; in assay [1] it was 1 to 10 µM.

As for `Cn1c([C@H]2CCCN(C(=O)Cc3ccc(F)c(F)c3)C2)nc(C(=O)Nc2cnoc2)c(O)c1=O` [Example 91, (S)-2-(1-(2-(3,4-difluorophenyl)acetyl)piperidin-3-yl)-5-hydroxy-N-(isoxazol-4-yl)-1-methyl-6-oxo-1,6-dihydropyrimidine-4-carboxamide], the results for the IC50 (on full length human TREX1; in assay [1]) were 100 to 1000 nM and 10 to 100 µM, respectively.

The IC50 is the concentration at which inhibition is half-maximal. The low end stands for inhibition by little substance, the high end for a need for much substance.
